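Following 48 hours of exposure in 96-well plates, responses at five concentrations were used to interpolate endpoints linearly. GI50 = concentration required for 50% inhibition of growth. Definition used: TGI = concentration required for complete inhibition of growth.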
How the values were obtained:
Test in all cases: DTP human tumour cell line panel, 48 h
OVCAR-5 ovarian = tested on: OVCAR-5 ovarian
A498 renal = tested on: A498 renal
IGROV1 ovarian = tested on: IGROV1 ovarian
HCT-15 colon = tested on: HCT-15 colon
SF-295 CNS = tested on: SF-295 CNS
RPMI-8226 leukemia = tested on: RPMI-8226 leukemia
HOP-62 NSCLC = tested on: HOP-62 NSCLC
HCT-116 colon = tested on: HCT-116 colon
LOX IMVI melanoma = tested on: LOX IMVI melanoma
MALME-3M melanoma = tested on: MALME-3M melanoma

Row | SMILES | TGI (OVCAR-5 ovarian) [µM] | TGI (A498 renal) [µM] | TGI (IGROV1 ovarian) [µM] | TGI (HCT-15 colon) [µM] | TGI (SF-295 CNS) [µM] | TGI (RPMI-8226 leukemia) [µM] | TGI (HOP-62 NSCLC) [µM] | TGI (HCT-116 colon) [µM] | TGI (LOX IMVI melanoma) [µM] | TGI (MALME-3M melanoma) [µM] | GI50 (OVCAR-5 ovarian) [µM] | GI50 (A498 renal) [µM] | GI50 (HCT-116 colon) [µM] | GI50 (IGROV1 ovarian) [µM] | GI50 (HCT-15 colon) [µM] | GI50 (SF-295 CNS) [µM] | GI50 (LOX IMVI melanoma) [µM] | GI50 (RPMI-8226 leukemia) [µM]
1 | COC(=O)C12Oc3ccc(-c4ccc5c(c4O)C(O)=C4C(=O)CC(C)C(O)C4(C(=O)OC)O5)c(O)c3C(O)=C1C(=O)CC(C)C2O (stereo not given) | 2.26 | 1.81 | > 100 | > 100 | 1.84 | 0.31 | 12.6 |  |  |  |  |  |  |  |  |  |  | 
2 | C=C(C)CCC1C=[N+]([O-])OC(C)(C)C1(C)C (stereo not given) | > 100 | > 100 | > 100 | > 100 | > 100 | > 100 | > 100 | > 100 | > 100 |  |  |  |  |  |  |  |  | 
3 | CCCCCCCCCCCCOC1C(COCCN2CCCCC2)OC2OC(C)(C)OC21 (stereo not given) | 4.23 | 29.3 | 3.26 | 3.2 | 3.15 |  | 3.25 | 3.07 | 3.01 | 3.28 |  |  |  |  |  |  |  | 
4 | COc1ccc2[nH]c3c(c2c1)CC(=O)N1CCC[C@H](C1)CC31OCCCO1 | > 100 | > 100 | > 100 | > 100 | > 100 | > 100 | > 100 | > 100 |  | > 100 |  |  |  |  |  |  |  | 
5 | COc1ccccc1C(=O)OCC1CCCN2CCCCC12 (stereo not given) |  | > 100 |  | > 100 | > 100 | > 100 |  | > 100 | 34.8 | > 100 |  |  |  |  |  |  |  | 
6 | COc1ccc([C@H]2CC3C(=O)N(c4ccc(OC)cc4)C(=O)C3c3[nH]c4ccccc4c32)cc1 (stereo not given in full) | > 100 | > 100 | > 100 | > 100 | 78.3 |  | > 100 | > 100 | > 100 | > 100 |  |  |  |  |  |  |  | 
7 | COc1ccc2c3/c(=C\c4ccc(N(C)C)cc4)c4ccccc4n3[n+](C)c2c1 | 2.22 | 7.37 | > 100 | > 100 |  | 0.136 |  | > 100 | > 100 |  | 0.472 | 0.371 | 0.0533 | 0.24 | 0.475 | 0.202 | 0.094 | < 0.0112
8 | CN(C)CCCn1c(Cn2nc3ccccc3n2)nc2cc(C(F)(F)F)ccc21 | > 100 | 41.7 | > 100 | > 100 | > 100 |  | > 100 | > 100 | 34.6 | 24.4 |  |  |  |  |  |  |  | 
9 | CCOS(=O)(=O)c1ccc(-c2c3nc(c(-c4ccc(S(=O)(=O)OCC)cc4)c4ccc([nH]4)c(-c4ccc(S(=O)(=O)OCC)cc4)c4nc(c(-c5ccc(S(=O)(=O)OCC)cc5)c5ccc2[nH]5)C=C4)C=C3)cc1 | > 31.6 | > 31.6 | > 100 | > 31.6 | > 31.6 | > 31.6 |  | > 31.6 |  | > 31.6 |  |  |  |  |  |  |  | 
10 | O=c1[nH]cnc2c1cnn2Cc1cnnn1COCCO | > 100 | > 100 | > 100 | > 100 | > 100 |  | > 100 | > 100 | > 100 | > 100 |  |  |  |  |  |  |  | 
11 | COc1ccc(-c2nnc3n(C)c4ccccc4n3c2=O)cc1 | > 100 | > 100 | > 100 | > 100 | 84.3 |  | 37.5 | > 100 | > 100 | > 100 |  |  |  |  |  |  |  | 

Reference: PubChem BioAssay (NCI)
